In US20100189701A1, “METHODS AND COMPOSITIONS TO TREAT ARRHYTHMIAS” (priority 2007, published 2010):

How the values were obtained:
Cx43 [1] = details: mM range, exposure times of hours; cited from earlier work
Cx43, 40, 45 = test: Example 4: chemical chaperone treatment of hMSC/myocyte co-culture, connexin expression and coupling; assay type: cell-based; details: initial results
Method: hMSCs and myocytes in co-culture are treated with a chemical chaperone (4 PB, 4-Phenylbutric acid, FDA approved) or zp123 (Rotigaptide) a synthetic antiarrhythmia peptide, that increases Cx43 mediated coupling. Western blot analysis and RT-PCR will be used to test protein abundance and expression for Cx43, 40, 45. Dual whole cell patch clamp will be used to determine the time course of junctional coupling. Western blot analysis and RT-PCR to test for protein abundance and expression for Cx43, 40, 45. The effects of 4PB and zp123 on hMSCs alone and myocytes alone will be assesed. Co-culturing of hMSCS and myocytes (atrial or ventricular) will also be done and a vital dye (Valiunas et al., 2005) will be used on hMSCs so that after defined time intervals of co-culture fluorescence activated cell sorting can be used to isolate the cell types and Western blot analysis and RT-PCR can be performed to assess abundance and expression respectively. A peptidase, such as dipeptidyl-peptidase or equivalent, will be used to cleave any zp123 that is secreted into the extracellular space. Dual whole cell patch clamp will be used to determine the time course of junctional coupling over a 96 hour interval at 24, 48 and 96 hours respectively. […] This should translate into enhanced coupling in the form of increased junctional conductance relative to controls.

Cx43 [2] = test: Western blot of HeLa cells expressing Cx43 exposed to 4PB; assay type: cell-based; details: HeLa cells transfected with Cx43, increasing doses
Source text: FIG. 34 illustrates a Western blot where HeLa cells expressing Cx43 have been exposed to increasing doses of 4PB.
4PB is an FDA approved drug that can be administered orally, which is being tested for effectiveness in spinal muscular atrophy (Wirth et al., 2006; Brahe et al., 2005), and cystic fibrosis (Singh et al., 2006). […] In addition, stress in the form of mildly elevated temperatures up-regulates connexin expression and increases the total number of functional channels (VanSlyke and Musil, 2005). The chemical chaperone (4PB), a known inhibitor of histone deacetylase, an enzyme associated with inactivation of gene transcription, increases Cx43 production at concentrations in the mM range and exposure times of hours. Not only is Cx43 production elevated 2-5 fold but enhanced dye transfer is observed (Asklund et al., 2004). […] The present inventors have determined that the time course of coupling between hMSCs or model cells with myocytes reaches 50% of maximum within 48 hours.

native SCN5A channel = native SCN5A channel (Homo sapiens, UniProt Q14524); details: cited from earlier work
neonatal myocytes = test: Action potential upstroke in neonatal myocytes under K depolarization; assay type: cell-based, rat
Method: FIG. 49: Effect of K depolarization on action potential upstroke in neonatal myocytes in the absence and presence of SKM1 expression. […] The elevated K reduced the upstroke to 68% of its control value (mean value after elevated K is 56% of control). Bottom) In an SKM1 expressing myocyte the upstroke is better preserved, measuring 83% of its control value in elevated K.
Top) In GFP but not SkM1 cultures there is a significant effect on CV of increasing K from 5.4 to 10 mM.
Action potentials are recorded using a patch electrode in whole cell mode on cells superfused at 35° C. These experiments are conducted on monolayer cultures when studying control conditions or when employing viral expression, which achieves near uniform expression. For studying transfected cells, the culture is resuspended on the day of experiment and cells selected on the basis of GFP fluorescence, with the GFP being part of the channel vector or co-transfected with a separate vector. Extracellular and pipette solutions are as previously employed. The external solution contains (mM): NaCl 140, KCl 5.4, CaCl2 1, MgCl2 1, HEPES 5, glucose 10, adjusted to pH 7.4. The internal solution contains (mM): aspartic acid 130, KOH 146, NaCl10, CaCl2 2, EGTA 5, HEPES10, MgATP 2, adjusted to pH 7.2. […] Parameters recorded are Vmax, MDP, action potential amplitude (AMP) and APD50.

[3] = cited from earlier work
epicardial border zone = test: Canine infarct epicardial border zone, electrograms and microelectrode study; assay type: in vivo, dog; details: 5 d after infarct and injection
[4] = test system: neonatal rat ventricular myocyte cultures; test: Conduction velocity in neonatal rat ventricular myocyte cultures on multi-electrode array; assay type: cell-based; details: K 5.4 to 10 mM
[5] = test system: neonatal myocyte cultures; test: Optical recording of CV and maximum pacing frequency in neonatal myocyte cultures; assay type: cell-based; details: high K (10.4 mM), vs GFP cultures
Method: Adenoviral treated neonatal myocyte cultures expressed SkM1 or GFP and were studied in normal and high (10.4 mM) K. Left: The effectiveness of SkM1 expression to maintain high CV persists as pacing frequency increases.
To determine if the gating characteristics of the expressed channel allow this protective effect to persist at higher frequencies, as may occur during reentrant arrhythmias, CV restitution relations in myocyte cultures expressing SkM1 Na channels+GFP and in control cultures (expressing GFP alone) was studied. FIG. 53 illustrates that CV remains greater as frequency increases, both in normal Tyrode's solution and in elevated K solution. Further, in the absence of SkM1, the breakpoint frequency is reduced in high K.

hMSCs = test: Patch clamp of hMSCs expressing SkM1 Na channel; assay type: cell-based, human; details: expressed in hMSCs
Source text: Left: An hMSC transfected with SkM1 was held at potentials between −100 mV and −70 mV and pulsed to 0 mV. Since the current induced from −70 mV is > half the magnitude of the current induced from −100 mV the midpoint of inactivation was positive to −70 mV. Right: hMSCs were held at holding potentials between −100 and −55 mV for 1.5 sec and pulsed to 0 mV for 150 msec. The Boltzmann 2-state fit gives a midpoint of −62.4±3.2 mV and a slope factor of −10.3±3.2 mV.
For research on myocardial infarct-induced ventricular tachycardia, a Na channel gene with a more positive inactivation versus voltage relationship than found normally in cardiac myocytes was required. The skeletal muscle Na channel was investigated because of its reported midpoint of inactivation of −68 mV.

Sequence of native SCN5A channel (Q14524 whole entry): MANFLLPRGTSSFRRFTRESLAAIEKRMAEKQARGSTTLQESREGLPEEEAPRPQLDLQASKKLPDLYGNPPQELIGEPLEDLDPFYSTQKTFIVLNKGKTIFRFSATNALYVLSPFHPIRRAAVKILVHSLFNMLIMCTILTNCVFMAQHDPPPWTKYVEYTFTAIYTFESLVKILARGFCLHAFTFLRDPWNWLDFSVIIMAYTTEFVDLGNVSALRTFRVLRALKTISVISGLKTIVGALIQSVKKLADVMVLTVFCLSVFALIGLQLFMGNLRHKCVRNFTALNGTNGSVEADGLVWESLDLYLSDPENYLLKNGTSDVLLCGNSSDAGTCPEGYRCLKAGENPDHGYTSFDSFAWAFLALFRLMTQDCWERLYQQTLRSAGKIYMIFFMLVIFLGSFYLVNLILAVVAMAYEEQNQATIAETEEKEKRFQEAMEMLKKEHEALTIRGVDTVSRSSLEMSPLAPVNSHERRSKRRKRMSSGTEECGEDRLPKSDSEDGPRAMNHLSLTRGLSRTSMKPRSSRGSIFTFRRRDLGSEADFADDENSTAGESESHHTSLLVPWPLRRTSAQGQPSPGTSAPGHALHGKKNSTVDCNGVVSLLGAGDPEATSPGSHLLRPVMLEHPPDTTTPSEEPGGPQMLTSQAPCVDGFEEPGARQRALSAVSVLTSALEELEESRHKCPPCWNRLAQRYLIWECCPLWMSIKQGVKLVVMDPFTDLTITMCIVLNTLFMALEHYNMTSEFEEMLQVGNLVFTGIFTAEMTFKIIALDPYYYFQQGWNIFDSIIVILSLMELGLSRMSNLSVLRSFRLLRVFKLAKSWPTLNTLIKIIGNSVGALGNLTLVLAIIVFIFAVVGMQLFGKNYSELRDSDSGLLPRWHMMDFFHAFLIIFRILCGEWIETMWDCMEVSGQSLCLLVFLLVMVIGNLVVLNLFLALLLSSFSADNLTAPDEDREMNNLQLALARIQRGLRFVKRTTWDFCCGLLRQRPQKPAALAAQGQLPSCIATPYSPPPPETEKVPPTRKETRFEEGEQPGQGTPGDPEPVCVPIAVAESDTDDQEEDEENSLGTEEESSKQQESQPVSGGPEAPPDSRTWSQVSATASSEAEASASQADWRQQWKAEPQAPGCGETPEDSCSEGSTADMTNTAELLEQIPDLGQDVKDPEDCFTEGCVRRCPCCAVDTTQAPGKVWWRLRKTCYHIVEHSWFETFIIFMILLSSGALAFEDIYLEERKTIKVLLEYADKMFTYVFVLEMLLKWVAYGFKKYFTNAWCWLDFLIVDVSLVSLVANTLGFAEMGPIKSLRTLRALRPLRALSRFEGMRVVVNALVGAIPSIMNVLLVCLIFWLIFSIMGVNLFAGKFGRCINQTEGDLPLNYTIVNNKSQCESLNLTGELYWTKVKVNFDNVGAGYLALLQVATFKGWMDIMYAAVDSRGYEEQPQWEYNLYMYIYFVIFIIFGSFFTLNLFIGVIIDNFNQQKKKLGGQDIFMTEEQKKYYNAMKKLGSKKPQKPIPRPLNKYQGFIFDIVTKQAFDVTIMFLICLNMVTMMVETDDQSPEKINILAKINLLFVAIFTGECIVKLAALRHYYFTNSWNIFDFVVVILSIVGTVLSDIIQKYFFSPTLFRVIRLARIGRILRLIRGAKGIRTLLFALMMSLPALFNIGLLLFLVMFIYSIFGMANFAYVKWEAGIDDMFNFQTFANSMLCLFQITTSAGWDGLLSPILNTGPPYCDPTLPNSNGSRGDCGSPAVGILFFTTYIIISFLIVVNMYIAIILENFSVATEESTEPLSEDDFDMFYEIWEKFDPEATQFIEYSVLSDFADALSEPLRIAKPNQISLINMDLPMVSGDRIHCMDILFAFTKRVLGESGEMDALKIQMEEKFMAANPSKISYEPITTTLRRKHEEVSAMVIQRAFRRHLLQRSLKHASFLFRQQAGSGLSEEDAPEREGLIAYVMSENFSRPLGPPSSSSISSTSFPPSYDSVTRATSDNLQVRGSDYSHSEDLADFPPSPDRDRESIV

In the case of `O=C(O)CCCc1ccccc1` [4PB, 4-Phenylbutric acid], the Cx43 production elevated (Cx43 [1]) is given as 2-5 fold, the connexin up-regulation (Cx43, 40, 45) is given as “causes up-regulation” and the Cx43 expression (Cx43 [2]) is given as “up-regulates Cx43”.

For `[Cd+2]` [Cd^2+], the Kd (native SCN5A channel) is given as “a few hundred”.

For “SkM1: skeletal muscle sodium channel, expressed from gene in hMSCs or myocytes”, the Vmax (neonatal myocytes; 10 K) is listed as greater than 100 V/s, the “action potential upstroke, % of control value” (neonatal myocytes; elevated K (10 mM) vs 5.4 mM) is listed as 83% and the inactivation midpoint ([3]; as stated in Example 16 group description) is listed as −65 mV. For the same compound, the activation midpoint ([3]; as worded) was −68 mV, the Slope factor ([3]; steady state inactivation) was −5.4 mV and the “electrogram at injected epicardial border zone site” value (epicardial border zone) was “narrow spike”. The “Vmax, injected site 1 vs non-injected site 2” value (epicardial border zone; equivalent membrane depolarization) was “nearly twice that of site 2”, the “effect of membrane depolarization on CV and V′max” value [4] was “significantly reduces CV and V′max of control cells, but not the SkM1 expressing cells” and the “break-point frequency (resistance to rhythm instabilities)” value [5] was “higher break-point frequencies”. The midpoint of inactivation (hMSCs) was −62.4±3.2 mV, the Slope factor (hMSCs; Boltzmann 2-state fit) was −10.3±3.2 mV and the midpoint of inactivation (hMSCs; listed as skeletal muscle Na channel) was −62 mV. The midpoint of inactivation (hMSCs; listed as skeletal muscle sodium channel) was −62 mV.
